According to patent US20240228488A1 (TAKEDA PHARMACEUTICAL COMPANY LIMITED, priority 2021, published 2024):

Molecular target: human activated kallikrein enzyme (Homo sapiens, UniProt P03952)
Assay: Plasma kallikrein inhibition, fluorogenic PFR-AMC substrate, 500 pM activated kallikrein format
Assay type: biochemical
Conditions: 500 pM activated kallikrein, 300 uM PFR-AMC, 30 min preincubation, 10 min reaction; read-out: Primary Dose Response Assay: Average EC50
In short: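 Fluorescence (ex 380/em 460 nm) is read after 10 min of 300 uM PFR-AMC turnover by 500 pM enzyme at RT. Compounds sit with enzyme for 30 min beforehand. Buffer is Tris (pH 7.5) with EDTA, NaCl, PEG-400 and Triton X-100; EC50 values are banded.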

Sequence of human activated kallikrein enzyme (P03952 391-638 limits assumed): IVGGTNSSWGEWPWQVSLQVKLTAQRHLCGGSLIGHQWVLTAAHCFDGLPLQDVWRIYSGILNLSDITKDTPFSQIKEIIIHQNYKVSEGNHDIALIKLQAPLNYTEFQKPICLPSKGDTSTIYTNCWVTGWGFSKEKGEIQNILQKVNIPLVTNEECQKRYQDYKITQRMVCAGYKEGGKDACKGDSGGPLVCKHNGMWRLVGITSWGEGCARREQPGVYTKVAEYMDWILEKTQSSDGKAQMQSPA
Sequence of human activated kallikrein enzyme (P03952 20-390 partner limits assumed): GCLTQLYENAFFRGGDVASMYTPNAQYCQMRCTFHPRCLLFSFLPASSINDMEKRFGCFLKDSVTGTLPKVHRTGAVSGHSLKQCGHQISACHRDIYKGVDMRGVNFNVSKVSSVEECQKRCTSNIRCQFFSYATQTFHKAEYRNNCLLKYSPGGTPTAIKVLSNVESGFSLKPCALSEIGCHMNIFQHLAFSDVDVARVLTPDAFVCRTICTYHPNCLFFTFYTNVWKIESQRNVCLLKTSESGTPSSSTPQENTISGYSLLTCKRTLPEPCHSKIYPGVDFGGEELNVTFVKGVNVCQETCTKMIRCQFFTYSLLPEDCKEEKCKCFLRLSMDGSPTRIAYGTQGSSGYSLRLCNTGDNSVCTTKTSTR

Compound	EC50
N#Cc1cc(Cl)sc1[C@H]1C[C@@H]1C(=O)Nc1cc(NCc2cn3cc(C4CC4)ccc3n2)ccn1 (racemic) [Example I-212, rac-(1S*,2S*)-2-(5-chloro-3-cyanothiophen-2-yl)-N-(4-(((6-cyclopropylimidazo[1,2-a]pyridin-2-yl)methyl)amino)pyridin-2-yl)cyclopropane-1-carboxamide]	1 to 10 nM
O=C(Nc1cc(NCc2cn3cc(Cl)ccc3n2)ccn1)[C@H]1C[C@@H]1c1cccc(Cl)c1 [Example I-253, (1S,2S)-N-(4-(((6-chloroimidazo[1,2-a]pyridin-2-yl)methyl)amino)pyridin-2-yl)-2-(3-chlorophenyl)cyclopropane-1-carboxamide]	1 to 10 nM
O=C(Nc1cc(N2CC[C@H](O)[C@H]2c2cn3cc(C4CC4)ccc3n2)ncn1)[C@H]1C[C@@H]1c1cccc(Cl)c1 [Example 484, (1S,2S)-2-(3-chlorophenyl)-N-(6-((2R,3S)-2-(6-cyclopropylimidazo[1,2-a]pyridin-2-yl)-3-hydroxypyrrolidin-1-yl)pyrimidin-4-yl)cyclopropane-1-carboxamide]	> 6000 nM
O=C(Nc1cc(NCc2cn3cc(C4CC4)ccc3n2)ncn1)[C@H]1C[C@@H]1c1cc(Cl)ccn1 (racemic) [Example I-265, rac-(1S*,2S*)-2-(4-chloropyridin-2-yl)-N-(6-(((6-cyclopropylimidazo[1,2-a]pyridin-2-yl)methyl)amino)pyrimidin-4-yl)cyclopropane-1-carboxamide]	1 to 10 nM
O=C(Nc1cc(NCc2cn3cc(C4CC4)ccc3n2)ncn1)[C@H]1C[C@@H]1c1cc(Cl)cs1 (racemic) [Example I-186, rac-(1S*,2S*)-2-(4-chlorothiophen-2-yl)-N-(6-(((6-cyclopropylimidazo[1,2-a]pyridin-2-yl)methyl)amino)pyrimidin-4-yl)cyclopropane-1-carboxamide]	10 to 100 nM
O=C(Nc1cc(NCc2cn3cc(C4CC4)ccc3n2)ncn1)[C@@H]1C[C@@]12C(=O)Nc1ccc(Cl)cc12 (racemic) [Example 510, rac-(1R*,2R*)-5′-chloro-N-(6-(((6-cyclopropylimidazo[1,2-a]pyridin-2-yl)methyl)amino)pyrimidin-4-yl)-2′-oxospiro[cyclopropane-1,3′-indoline]-2-carboxamide]	100 to 1000 nM
Cc1ccnc([C@H]2C[C@@H]2C(=O)Nc2cc(CCc3cn4cc(C5CC5)cc(N5CC(=O)N(C)C5=O)c4n3)ccn2)n1 [Example I-653, (1S,2S)—N-(4-(2-(6-cyclopropyl-8-(3-methyl-2,4-dioxoimidazolidin-1-yl)imidazo[1,2-a]pyridin-2-yl)ethyl)pyridin-2-yl)-2-(4-methylpyrimidin-2-yl)cyclopropane-1-carboxamide]	< 1 nM
O=C(Nc1cc(N(CCO)Cc2cn3cc(C4CC4)ccc3n2)ncn1)[C@H]1C[C@@H]1c1cc(Cl)ccn1 [Example 328, (1S,2S)-2-(4-chloropyridin-2-yl)-N-(6-(((6-cyclopropylimidazo[1,2-a]pyridin-2-yl)methyl)(2-hydroxyethyl)amino)pyrimidin-4-yl)cyclopropane-1-carboxamide]	10 to 100 nM
CN(C)C1CCN(c2cc(C3CC3)cn3cc(CNc4cc(NC(=O)[C@H]5C[C@@H]5c5cccc(Cl)c5)ncn4)nc23)C1 (single isomer, unassigned) [Example I-14]	1 to 10 nM
COCc1cnc(NC(=O)[C@H]2C[C@@H]2c2nccc(C)n2)nc1OCc1cn2cc(C3CC3)cc(N3CC(=O)N(C)C3=O)c2n1 [Example 663, (1S,2S)—N-(4-((6-cyclopropyl-8-(3-methyl-2,4-dioxoimidazolidin-1-yl)imidazo[1,2-a]pyridin-2-yl)methoxy)-5-(methoxymethyl)pyrimidin-2-yl)-2-(4-methylpyrimidin-2-yl)cyclopropane-1-carboxamide]	< 1 nM
Cc1cc(NC(=O)[C@H]2C[C@@H]2c2nccc(C)n2)cc(N[C@H](C)c2cn3cc(C4CC4)cc(N4CC(=O)N(C)C4=O)c3n2)n1 [Example I-246, (1S,2S)-N-(2-(((R)-1-(6-cyclopropyl-8-(3-methyl-2,4-dioxoimidazolidin-1-yl)imidazo[1,2-a]pyridin-2-yl)ethyl)amino)-6-methylpyridin-4-yl)-2-(4-methylpyrimidin-2-yl)cyclopropane-1-carboxamide]	< 1 nM
Cc1ccnc([C@H]2C[C@@H]2C(=O)Nc2nccc3nc(Cc4cn5cc(C6CC6)cc(N6CC(=O)N(C)C6=O)c5n4)oc23)n1 [Example 629, (1S,2S)—N-(2-((6-cyclopropyl-8-(3-methyl-2,4-dioxoimidazolidin-1-yl)imidazo[1,2-a]pyridin-2-yl)methyl)oxazolo[5,4-c]pyridin-4-yl)-2-(4-methylpyrimidin-2-yl)cyclopropane-1-carboxamide]	< 1 nM
Cc1ccnc([C@H]2C[C@@H]2C(=O)Nc2cc(N[C@@H](C)c3cn4cc(C5CC5)cc(N5CC(=O)N(C)C5=O)c4n3)nc(C)n2)n1 [Example 455, (1S,2S)—N-(6S-((1-(6-cyclopropyl-8-(3-methyl-2,4-dioxoimidazolidin-1-yl)imidazo[1,2-a]pyridin-2-yl)ethyl)amino)-2-methylpyrimidin-4-yl)-2-(4-methylpyrimidin-2-yl)cyclopropane-1-carboxamide]	10 to 100 nM
COc1cc([C@H]2C[C@@H]2C(=O)Nc2cc(NCc3cn4cc(C5CC5)ccc4n3)ncn2)cc(NC(=O)OC(C)(C)C)n1 (racemic) [Example I-182, rac-tert-butyl (4-((1S*,2S*)-2-((6-(((6-cyclopropylimidazo[1,2-a]pyridin-2-yl)methyl)amino)pyrimidin-4-yl)carbamoyl)cyclopropyl)-6-methoxypyridin-2-yl)carbamate]	> 6000 nM
Cc1ccnc([C@H]2C[C@@H]2C(=O)Nc2cc(N[C@@H](C)c3cn4cc(C5CC5)cc(N5CC(=O)N(C)C5=O)c4n3)ncn2)n1 (single isomer, unassigned) [Example 452]	10 to 100 nM
Cc1ccnc([C@H]2C[C@@H]2C(=O)Nc2cnnc(OCc3cn4cc(C5CC5)cc(N5CC(=O)N(C)C5=O)c4n3)c2)n1 [Example I-648, (1S,2S)—N-(6-((6-cyclopropyl-8-(3-methyl-2,4-dioxoimidazolidin-1-yl)imidazo[1,2-a]pyridin-2-yl)methoxy)pyridazin-4-yl)-2-(4-methylpyrimidin-2-yl)cyclopropane-1-carboxamide]	< 1 nM
O=C(Nc1cc(NCc2nc3ccc(C4CC4)cn3c2F)ncn1)[C@H]1C[C@@H]1c1cccc(Cl)c1 [Example I-152, (1S,2S)-2-(3-chlorophenyl)-N-(6-(((6-cyclopropyl-3-fluoroimidazo[1,2-a]pyridin-2-yl)methyl)amino)pyrimidin-4-yl)cyclopropane-1-carboxamide]	10 to 100 nM
O=C([C@H]1C[C@@H]1c1cccc(Cl)c1)N(O)c1cc(NCc2cn3cc(C4CC4)ccc3n2)ncn1 [Example I-175, (1S,2S)-2-(3-chlorophenyl)-N-(6-(((6-cyclopropylimidazo[1,2-a]pyridin-2-yl)methyl)amino)pyrimidin-4-yl)-N-hydroxycyclopropane-1-carboxamide]	> 6000 nM
CO[C@H]1C[C@H](c2cn3cc(C4CC4)ccc3n2)N(c2cc(NC(=O)[C@H]3C[C@@H]3c3cccc(Cl)c3)ncn2)C1 [Example 616, (1S,2S)-2-(3-chlorophenyl)-N-(6-((2R,4S)-2-(6-cyclopropylimidazo[1,2-a]pyridin-2-yl)-4-methoxypyrrolidin-1-yl)pyrimidin-4-yl)cyclopropane-1-carboxamide]	> 6000 nM

Same assay, conditions: comparative compounds, 500 pM activated kallikrein format; read-out: Primary Dose Response Assay: Average EC50

Compound	EC50
O=C(NCc1cccc(Cl)c1)c1cnn(Cc2cn3cc(C4CC4)ccc3n2)c1	1000 to 6000 nM
